Measured values as given in patent US20260049078A1, “DIFLUORO- AND TRIFLUORO-ACETYL HYDRAZIDES AS SELECTIVE HDAC6 INHIBITORS” (ITALFARMACO S.P.A., priority 2022, published 2026).

What was measured:
recombinant human HDAC1 = recombinant human HDAC1 (Homo sapiens (Human), UniProt Q13547); assay: Enzyme inhibitory activity assay on HDAC1; type: biochemical; details: 120 minutes preincubation at 25° C.
Protocol: For each test compound, 100× concentrated DMSO solutions at 8 doses were prepared and then diluted in assay buffer (25 mM Tris-HCl, pH 8, 130 mM NaCl, 0.05% Tween-20, 10% Glycerol) to obtain 5× concentrated solutions in relation to the final concentrations (typical final concentration range—6.4-200000 nM or 0.18-50000 nM, final DMSO content—1%). Then 10 μL solution of each test compound concentration were placed on a 96-well plate in triplicate and 15 μL of 3.33× concentrated enzyme solution in the assay buffer containing 3.33× concentrated BSA (final BSA concentration 1 mg/mL) and, in case of HDAC6, 3.33× concentrated TCEP (final TCEP concentration—200 μM) were added to each well. After a period of preincubation at 25° C. (30 minutes for HDAC6 and 120 minutes for HDAC1), 25 μL of solution containing the substrate were added. As substrate, FLUOR DE LYS® deacetylase substrate (Enzo Life Sciences, cat: BML-KI104, FdL), FLUOR DE LYS®-Green substrate (Enzo Life Sciences, cat: BML-KI572, FdL_G) or Boc-Lys(Tfa)-AMC (Bachem, cat: 4060676.005, Tfal)—2× concentrated solution in assay buffer were used. Following a reaction period (30 minutes at 25° C.), 50 μL of the development solution consisting of concentrate FLUOR DE LYS® developer I (Enzo Life Sciences, ca: BML-KI105), diluted 200 times in buffer (50 mM Tris-HCl, pH 8, 137 mM NaCl, 2.7 mM KCl, 1 mM MgCl2) plus 2 μM TSA was added and, after 25 minutes at room temperature in the dark, using the Victor 1420 Multilabel Counter Perkin Elmer Wallac instrument, the fluorescence reading was carried out (excitation/emission: 485/535 nM—Fluor de Lys Green, 355/460 nM—Tfal, Fluor de Lys).
Enzymatic activity on recombinant human HDAC6 and HDAC1 was evaluated (Table 2) for each synthesized compound.

SH-SY5Y cells = assay: In vitro α-tubulin acetylation in undifferentiated SH-SY5Y cells; type: cell-based; details: overnight, @1uM
Protocol: SH-SY5Y cells (ATCC, cod. CRL-2266) are plated in optical optimized 96-well black plates (Perkin Elmer, cod. 6055302) at 5000 cells/well in 100 μl/well of growth medium (DMEM/F12 (1:1)+10 mM hepes+100 units/mL of penicillin+100 μg/mL of streptomycin+10% of inactivated Foetal calf serum (FCS, Hyclone)).
After 24 h of seeding, cells are incubated overnight with the selected molecules at 0.1-1-10 μM. ACY1083 and Tubastatin A, at the same doses, are tested as positive controls of α-Tubulin acetylation, while untreated cells are incubated with 0.01% DMSO and indicated as CTRL DMSO.
At the end of the incubation, cells are fixed adding 100 μL/well of formaldehyde 8% in PBS (final formaldehyde concentration 4% in 200 μL/well) directly in the 100 μL/well of medium, for 30 min at RT. The fixing solution is carefully removed, and wells are washed twice with PBS for 10 min each. Fixed cells are kept in PBS at 4° C. until staining.
The day of the staining experiment, the fixed cells are incubated 60 min with the blocking buffer (PBS with 5% FCS+0.3% Triton™ X-100). While blocking, primary antibodies are prepared by diluting 1:200 the α-Tubulin Alexa Fluor 488 Conjugate (Cell Signaling, cod. 5063) antibody and 1:50 Acetyl-α-Tubulin Alexa Fluor 647 Conjugate (Cell Signaling, cod. 81502) antibody in the Antibody Dilution Buffer (PBS with 1% BSA+0.3% Triton™ X-100). Once the blocking solution is aspirated, the diluted primary antibodies are applied and incubated overnight at 4° C. The next day, cells are rinsed twice with PBS (10 min each), incubated 5 min with 300 nM DAPI in PBS, and then rinsed twice with PBS (10 min each). For each treatment, 3 wells are stained.
Images of the stained cells are acquired by means of the IN Cell Analyzer 2500 HS Instrument, using: far red channel for Acetyl-α-Tubulin staining (exposure 0.02 sec), green channel for α-Tubulin staining (exposure 0.02 sec), and blue channel for DAPI (nuclei) staining. For each well, 10 images are acquired.
Images of stained cells are analysed with the InCarta software (Molecular Devices) for obtaining fluorescence intensity considering whole cells. For each treatment, mean values of Cell intensity—Bckg (Cell), for both staining, are obtained using the InCarta raw data by FOV (Field of View). Results are expressed as fold increase of the ratio of acetylated tubulin and total tubulin towards control (CTRL DMSO).

Chain of recombinant human HDAC1 (Q13547 whole entry): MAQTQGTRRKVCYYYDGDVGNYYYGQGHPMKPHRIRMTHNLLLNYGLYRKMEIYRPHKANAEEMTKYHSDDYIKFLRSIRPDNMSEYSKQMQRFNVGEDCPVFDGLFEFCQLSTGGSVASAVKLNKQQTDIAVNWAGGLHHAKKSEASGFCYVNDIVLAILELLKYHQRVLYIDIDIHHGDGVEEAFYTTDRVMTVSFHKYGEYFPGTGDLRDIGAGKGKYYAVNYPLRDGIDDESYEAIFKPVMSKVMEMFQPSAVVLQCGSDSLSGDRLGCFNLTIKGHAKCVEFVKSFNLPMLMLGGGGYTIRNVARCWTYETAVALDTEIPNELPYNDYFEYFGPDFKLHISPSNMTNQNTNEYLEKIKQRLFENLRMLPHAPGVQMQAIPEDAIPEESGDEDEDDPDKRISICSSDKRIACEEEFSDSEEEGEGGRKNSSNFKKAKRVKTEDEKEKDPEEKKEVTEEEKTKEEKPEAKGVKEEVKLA

| Compound | IC50 (recombinant human HDAC1) [µM] | TubAc SH-SY5Y cells fold increase of the ratio of acetylated tubulin and total tubulin towards control (SH-SY5Y cells) [fold] |
| --- | --- | --- |
| Nc1nc2ccc(-c3cn(Cc4ccc(-c5nnc(C(F)F)o5)cc4Cl)nn3)cc2s1 [Compound 37-A] | > 100 | 6 |
| Fc1ccccc1-c1cn(Cc2ccc(-c3nnc(C(F)F)o3)cn2)nn1 [Compound 14-A] | > 100 | 6.3 |
| Nc1nc2ccc(-c3cn(Cc4ccc(-c5nnc(C(F)F)o5)cc4F)nn3)cc2s1 [Compound 2-A] | > 100 | 6.2 |
| Nc1nc2ccc(-c3cn(Cc4ccc(-c5nnc(C(F)F)o5)cn4)nn3)cc2s1 [Compound 38-A] | > 100 | 10 |
| FC(F)c1nnc(-c2ccc(Cn3cc(-c4ccccc4)nn3)nc2)o1 [Compound 13-A] | > 100 |  |
| FC(F)c1nnc(-c2ccc(Cn3cc(-c4ccc(NC5=NCCN5)cc4)nn3)cc2)o1 [Compound 1-A] | > 100 | 2 |
| FC(F)c1nnc(-c2ccc(Cn3cc(-c4ccccn4)nn3)nc2)o1 [Compound 20-A] | > 100 |  |
| Nc1nc2ccc(-c3cn(Cc4ccc(-c5nnc(C(F)F)o5)cc4)nn3)cc2s1 [Compound 32-A] | > 100 | 6.3 |
| Nc1nc2ccc(C3CN(Cc4ccc(C(=O)NNC(=O)C(F)F)s4)N=N3)cc2s1 (stereo not shown) [Compound 48-A] | > 100 | 15.7 |
